Reference: patent US8637461B2, “Method of diagnosing and treating oxidative stress-impaired wound healing” (Kuwait University, priority 2011, dated 2014)

Assays:
[1] = tested on: reactive oxygen species (ROS); experiment: ROS generation in cultured fibroblasts (DCF-DA); type: cell-based, rat
Description: (§1) Primary dermal fibroblasts were obtained from dorsal skin of female Goto Kakizaki (GK, age 12-15 months) rats, a model for non-obese type 2 diabetes, and their Wistar control counterparts. After sterilization in povidine solution, rat skin was washed in sterile water and rinsed in 70% ethanol in PBS. Epidermis and dermis were separated following overnight incubation in 0.25% trypsine/EDTA at 4 C. Dermis was cut into small pieces and incubated in Dulbecco's modified Eagle medium (DMEM; Invitrogen) containing collagenase (250 U/ml; Sigma) for thirty min at 37 C in 5% CO2 with constant agitation. The sections were triturated vigorously to release fibroblasts, which were collected by centrifugation. The cell pellet was washed two times with PBS, re-suspended in complete medium (DMEM supplemented with 10% fetal calf serum, penicillin (100 U/ml), streptomycin (100 μg/ml)), 2 mM L-glutamine and 10 mM HEPES) and then cultured under a standard condition.
(§2) A hypercortisolemic state was mimicked by exposing control fibroblasts to dexamethasone (Dexa, Sigma) administered at 20 ng/ml every other day for a duration of 8 days. Similarly, the state of low-grade inflammation in fibroblasts was recapitulated experimentally by exposing these cells to TNF-α (4 ng/ml every day for 4 days). […] The concentration of IGF-1 (50 ng/ml, Peprotech) was determined by prior dose response experiment.
ROS generation in cultured fibroblasts was evaluated using dichloroflurescein-diacetate (DCF-DA, Molecular Probes), a probe that is oxidized to the fluorescent product DCF upon exposure to hydrogen peroxide, peroxynitrite, hydroxyl radical and nitric oxide. Its concentration serves as an indicator of the overall degree of intracellular oxidative stress.
Cells seeded in 96-well plates were incubated for thirty minutes at 37 C in serum free media containing 5 μM of DCF-DA. The plates were then washed twice with Krebs Ringer Buffer (KR) and the fluorescence readings were taken every 15 min for 1 hr at Ex=485 and Em=530. Subtracted background values were obtained from wells containing DCF-DA without cells. […]

dermal fibroblasts [2] = experiment: Collagen gel contraction assay with fibroblasts; type: cell-based, rat; conditions: diabetic, TNF-α- or dexamethasone-exposed cells; EUK-134
Description: as §1
(§3) A hypercortisolemic state was mimicked by exposing control fibroblasts to dexamethasone (Dexa, Sigma) administered at 20 ng/ml every other day for a duration of 8 days. […] The concentration of IGF-1 (50 ng/ml, Peprotech) was determined by prior dose response experiment.
The ability of fibroblasts to migrate in response to IGF-I in each of our models of oxidative stress-induced IGF-1 resistance was also evaluated. […]

COL1A1 mRNA = experiment: Real time PCR of COL1A1 mRNA in fibroblasts; type: cell-based, rat; conditions: diabetic, TNF-α- or dexamethasone-exposed cells; EUK-134
Description: as §1
as §2, with “experiment. […]” for “experiment.”

IRS-1 = IRS-1 Ser307 phosphorylation in dermal fibroblasts; type: cell-based, rat; conditions: diabetic, TNF-α- or dexamethasone-exposed cells; EUK-134
Description: as §1, with “The cell pellet was washed two times with PBS, re-suspended in complete medium (DMEM supplemented with 10% fetal calf serum, penicillin (100 U/ml), streptomycin (100 μg/ml)), 2 mM L-glutamine and 10 mM HEPES) and then cultured under a standard condition.” left out
as §3
Levels/activities of key intracellular molecules in the IGF-1 signaling cascade including IRS-1, IRS-1 Tyr-p-612, PI3K-p85α, IRS-1 Ser-p (307), PI3K, Akt, p-Akt, INK and p-JNK were assessed using western blotting/immunoprecipitation and commercially available ELISA-based assays. […]

cultured fibroblasts = experiment: WST-based cell viability of cultured fibroblasts; parameters: species or system rat; conditions: EUK 100 μM, LA 500 μM
PI3K = PI3K ELISA kinase assay on fibroblast lysates; type: cell-based, rat; conditions: diabetic, TNF-α- or dexamethasone-exposed cells; co-exposure to EUK-134
Description: as §1, §3
PI3K activity was measured using PI3K ELISA (Echelon Biosciences Inc). […]

Akt = Akt phosphorylation, FACE cell-based ELISA in fixed fibroblasts; parameters: species or system rat; conditions: diabetic, TNF-α- or dexamethasone-exposed cells, EUK-134
Description: as §1, with “The cell pellet was washed two times with PBS, re-suspended in complete medium (DMEM supplemented with 10% fetal calf serum, penicillin (100 U/ml), streptomycin (100 μg/ml)), 2 mM L-glutamine and 10 mM HEPES) and then cultured under a standard condition.” left out
as §3
Activation of Akt and JNK was analyzed in fixed fibroblasts using FACE-Akt and FACE-JNK (both from Active Motife). […] Labeling with antibodies was conducted according to the manufacturer's protocol and the resulting phosphoantibody signal was calculated after correction for number of cells and total Akt or JNK levels in each sample. […]

dermal fibroblasts [3] = experiment: BrdU cell proliferation assay in fibroblasts; type: cell-based, rat; conditions: fibroblasts with diabetic, inflammatory or hypercortisolemia phenotypes; ROS suppressors
Description: as §1, §2
The proliferation and collagen synthesis of cultured fibroblasts were determined using, respectively the 5-bromo-2-deoxyuridine (BrdU) incorporation into DNA and a radiolabelled proline uptake assay.
Cells were seeded into 96-microtiter plates at a concentration of 1.5×10^4 and allowed to adhere overnight in DMEM supplemented with 10% FCS. After arrest by incubation in DMEM supplemented with 0.5% FCS for 24 hrs, cells were exposed to IGF-I (50 ng/ml) in DMEM containing […] 5-bromo-2-deoxyuridine (BrdUrd). Incorporation of BrdUrd into DNA was estimated using 5-bromo-2-deoxyuridine labeling and detection kit (Roche Applied Science) according to the manufacturer's instructions.

COc1cccc(C=NCCN=Cc2cccc(OC)c2[O-])c1[O-].[Cl-].[Mn+3] [EUK-134]
reactive oxygen species (ROS) levels ([1]; diabetic, TNF-α- or dexamethasone-exposed cells, EUK-134): approximately restores normal ROS levels
HSOS (oxidative stress) ([1]; fibroblasts with diabetic, inflammatory or hypercortisolemia phenotypes, ROS suppressors): lessen the HSOS
contractility in collagen gel assay (dermal fibroblasts [2]): partially restores this contractility to control levels
collagen mRNA synthesis (COL1A1 mRNA): returns it to approximately control levels
phosphorylation of IRS-1 at Ser307 (IRS-1): diminishes Ser307 phosphorylation to levels comparable to the basal level in normal fibroblasts
effect on cell viability (WST-based technique) (cultured fibroblasts): minimum effect on cell viability
PI3K enzymatic activity (PI3K): partially restored
Akt phosphorylation in response to IGF-1 (Akt): partially restored
impairment in key fibroblast functions (collagen synthesis, cell proliferation, migration, contraction) (dermal fibroblasts [3]): ameliorates
